Reference: patent publication US8841456B2, “1,5-naphthyridine derivative or salt thereof” (FUJIFILM Corporation, priority 2011, dated 2014)
Read-outs that look alike come from different tables or passages of the source.

Legend:
[1] = molecular target: T1, human PI3Kα protein (Homo sapiens, UniProt P42336); assay: PI3Kα enzyme assay (ADP-Glo kinase assay); format: biochemical; settings: 3 nM PI3Kα, 50 μM PIP2, 100 μM ATP
T1 construct: purchased Carna Biosciences, Inc; host or cells: Baculovirus expression system
How it was run: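 Baculovirus-expressed biotinylated human PI3Kα (3 nM) preincubated 15 min with compound in Tris pH 7.5, MgCl2, BSA, then reacted 60 min at 25 °C with 50 μM PIP2 and 100 μM ATP. ADP quantified by ADP-Glo luminescence; IC50 calculated.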

[2] = molecular target: T2, glutathione S-transferase (GST)-fusion human ERK2 protein (Homo sapiens, UniProt P28482); assay: ERK2 enzyme assay (LabChip mobility shift); format: biochemical; settings: 2 nM ERK2, 4.25 μM FL-Peptide 8, 43 μM ATP
T2 construct: purchased Carna Biosciences, Inc; host or cells: E. coli expression system
How it was run: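 GST-tagged human ERK2 from E. coli, at 2 nM, was preincubated 15 min at room temperature with compound in Hepes pH 7.5 with MgCl2, DTT and Brij35. The reaction ran 120 min at 25 °C with 4.25 μM FL-Peptide 8 and 43 μM ATP (final). Phosphopeptide fraction was measured by mobility-shift separation to give IC50.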

[3] = IC50 class, read-out: PI3Kα Inhibitory Activity
[4] = IC50 class, read-out: ERK2 Inhibitory Activity

T1 sequence (P42336 whole entry): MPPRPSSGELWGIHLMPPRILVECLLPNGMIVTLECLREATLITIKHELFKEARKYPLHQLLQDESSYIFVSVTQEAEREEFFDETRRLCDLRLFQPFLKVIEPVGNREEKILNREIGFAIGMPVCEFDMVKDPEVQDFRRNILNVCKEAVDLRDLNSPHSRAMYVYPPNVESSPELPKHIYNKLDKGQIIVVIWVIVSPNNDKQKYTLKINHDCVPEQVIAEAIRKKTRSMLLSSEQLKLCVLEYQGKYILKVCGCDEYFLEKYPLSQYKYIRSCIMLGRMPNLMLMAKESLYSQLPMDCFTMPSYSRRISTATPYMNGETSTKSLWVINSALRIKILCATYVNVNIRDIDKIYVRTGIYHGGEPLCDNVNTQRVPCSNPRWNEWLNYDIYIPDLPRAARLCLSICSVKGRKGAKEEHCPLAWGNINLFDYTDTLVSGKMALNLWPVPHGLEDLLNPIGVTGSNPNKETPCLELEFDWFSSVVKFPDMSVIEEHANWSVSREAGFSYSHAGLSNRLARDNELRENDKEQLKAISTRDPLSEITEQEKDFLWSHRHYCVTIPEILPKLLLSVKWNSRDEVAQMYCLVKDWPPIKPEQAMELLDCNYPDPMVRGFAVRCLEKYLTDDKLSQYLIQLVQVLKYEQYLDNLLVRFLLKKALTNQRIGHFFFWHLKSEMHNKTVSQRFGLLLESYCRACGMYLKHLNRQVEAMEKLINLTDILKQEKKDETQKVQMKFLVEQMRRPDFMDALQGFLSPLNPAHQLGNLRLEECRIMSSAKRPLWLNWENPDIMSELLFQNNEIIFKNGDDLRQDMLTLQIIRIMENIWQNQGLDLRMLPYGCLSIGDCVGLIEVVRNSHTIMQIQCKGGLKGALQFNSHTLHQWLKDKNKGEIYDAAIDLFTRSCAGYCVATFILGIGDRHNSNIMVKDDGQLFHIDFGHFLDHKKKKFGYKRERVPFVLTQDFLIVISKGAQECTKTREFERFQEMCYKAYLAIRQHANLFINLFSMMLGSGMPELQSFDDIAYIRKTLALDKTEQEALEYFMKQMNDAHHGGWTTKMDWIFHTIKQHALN
T1 sequence (P27986 whole entry partner): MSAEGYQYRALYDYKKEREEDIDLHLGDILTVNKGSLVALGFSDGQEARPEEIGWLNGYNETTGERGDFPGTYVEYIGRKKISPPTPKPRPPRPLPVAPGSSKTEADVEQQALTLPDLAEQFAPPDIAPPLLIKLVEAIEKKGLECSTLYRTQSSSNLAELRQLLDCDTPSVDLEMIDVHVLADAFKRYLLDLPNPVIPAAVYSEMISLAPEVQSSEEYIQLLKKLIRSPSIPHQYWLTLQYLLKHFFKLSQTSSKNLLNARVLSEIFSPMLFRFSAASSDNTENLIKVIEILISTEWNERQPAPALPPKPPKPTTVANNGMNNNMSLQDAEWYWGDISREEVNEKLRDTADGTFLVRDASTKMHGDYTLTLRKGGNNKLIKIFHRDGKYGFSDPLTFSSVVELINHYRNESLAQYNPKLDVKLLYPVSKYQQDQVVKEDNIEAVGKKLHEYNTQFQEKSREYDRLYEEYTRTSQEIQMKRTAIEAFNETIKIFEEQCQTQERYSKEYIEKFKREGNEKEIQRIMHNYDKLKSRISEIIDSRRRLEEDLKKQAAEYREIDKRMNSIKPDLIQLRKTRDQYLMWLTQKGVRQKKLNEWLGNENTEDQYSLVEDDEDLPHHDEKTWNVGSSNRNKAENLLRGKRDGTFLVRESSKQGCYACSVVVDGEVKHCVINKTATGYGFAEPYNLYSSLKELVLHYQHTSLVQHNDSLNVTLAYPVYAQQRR
T2 sequence (P28482 whole entry, the tested form may be a part): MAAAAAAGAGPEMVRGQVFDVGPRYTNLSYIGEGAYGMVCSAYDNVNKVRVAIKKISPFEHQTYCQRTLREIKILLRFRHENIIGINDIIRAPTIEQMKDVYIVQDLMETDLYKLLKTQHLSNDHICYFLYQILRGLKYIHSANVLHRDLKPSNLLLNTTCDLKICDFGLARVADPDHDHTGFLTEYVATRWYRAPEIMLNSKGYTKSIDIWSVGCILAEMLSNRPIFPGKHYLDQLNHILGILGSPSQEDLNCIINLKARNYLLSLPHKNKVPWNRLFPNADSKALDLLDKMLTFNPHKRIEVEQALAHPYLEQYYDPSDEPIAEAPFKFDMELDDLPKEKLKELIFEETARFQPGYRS

| IC50 [1, 3] | IC50 [2, 4] | IC50 ([1]; read-out: PI3Kα, IC50) | IC50 ([2]; read-out: ERK2, IC50) | SMILES |
| --- | --- | --- | --- | --- |
| < 100 nM | 100 to 1000 nM | – | – | O=C(Nc1ccc2ncc(-c3cnn(CCN4CCC4)c3)cc2n1)NC1CCCC1 [Compound 0024] |
| 100 to 1000 nM | < 100 nM | – | – | O=C(Nc1ccc2ncc(-c3ccc(F)cc3)cc2n1)NC1CCCC1 [Compound 0020] |
| 100 to 1000 nM | < 100 nM | – | – | O=C(Nc1ccc2ncc(-c3cn[nH]c3)cc2n1)NC1CCOCC1 [Compound 0076] |
| < 100 nM | 100 to 1000 nM | – | – | CCN(CC)CCn1cc(-c2cnc3ccc(NC(=O)NC4CCCC4)nc3c2)cn1 [Compound 0025] |
| 100 to 1000 nM | < 100 nM | – | – | O=C(Nc1ccc2ncc(-n3ccnc3)cc2n1)NC1CCCC1 [Compound 0259] |
| 100 to 1000 nM | < 100 nM | – | – | O=C(NCCCCCc1ccccc1)Nc1ccc2ncc(-c3cn[nH]c3)cc2n1 [Compound 0096] |
| < 100 nM | 100 to 1000 nM | – | – | O=C(Nc1ccc2ncc(-c3cnn(CCN4CC5(COC5)C4)c3)cc2n1)NC1CCCC1 [Compound 0117] |
| < 100 nM | < 100 nM | – | – | O=C(Nc1ccc2ncc(-c3c[nH]nc3CO)cc2n1)NC1CCCC1 [Compound 0219] |
| < 100 nM | < 100 nM | – | – | CCN1CCN(CCCn2cc(-c3cnc4ccc(NC(=O)NC5CCCC5)nc4c3)cn2)CC1 [Compound 0233] |
| < 100 nM | < 100 nM | – | – | O=C(Nc1ccc2ncc(-c3cn[nH]c3)cc2n1)NC1CCC1 [Compound 0084] |
| 100 to 1000 nM | 100 to 1000 nM | – | – | O=C(NCc1ccncc1)Nc1ccc2ncc(-c3cn[nH]c3)cc2n1 [Compound 0103] |
| 100 to 1000 nM | 100 to 1000 nM | – | – | O=C(Nc1ccc2ncc(-c3ccccc3)cc2n1)NC1CCCC1 [Compound 0006] |
| 100 to 1000 nM | 100 to 1000 nM | – | – | O=C(NCC1C[C@@H]2CC[C@H]1C2)Nc1ccc2ncc(-c3cnn(CCN4CCNCC4)c3)cc2n1 (stereo partly drawn) [Compound 0252] |
| 100 to 1000 nM | < 100 nM | – | – | O=C(NCCOCc1ccccc1)Nc1ccc2ncc(-c3cn[nH]c3)cc2n1 [Compound 0107] |
| < 100 nM | 100 to 1000 nM | – | – | CCN1CCC(n2cc(-c3cnc4ccc(NC(=O)NC5CCCC5)nc4c3)cn2)CC1 [Compound 0230] |
| < 100 nM | < 100 nM | – | – | O=C(Nc1ccc2ncc(-c3cnn(CCCN4CC[C@@H](F)C4)c3)cc2n1)NC1CCCC1 [Compound 0248] |
| 100 to 1000 nM | < 100 nM | – | – | O=C(NC[C@H]1CCCO1)Nc1ccc2ncc(-c3cn[nH]c3)cc2n1 [Compound 0192] |
| < 100 nM | < 100 nM | – | – | O=C(Nc1ccc2ncc(-c3cnn(CCCCN4CCOCC4)c3)cc2n1)NC1CCCC1 [Compound 0207] |
| 100 to 1000 nM | < 100 nM | – | – | O=C(NCCc1c[nH]c2ccccc12)Nc1ccc2ncc(-c3cn[nH]c3)cc2n1 [Compound 0112] |
| < 100 nM | < 100 nM | – | – | CC(C)[C@H](C)NC(=O)Nc1ccc2ncc(-c3cn[nH]c3)cc2n1 [Compound 0083] |
| < 100 nM | < 100 nM | – | – | O=C(Nc1ccc2ncc(C3=CCOCC3)cc2n1)NC1CCCC1 [Compound 0205] |
| < 100 nM | < 100 nM | – | – | O=C(Nc1ccc2ncc(-c3cn[nH]c3)cc2n1)NC1CC[C@H](O)C1 (stereo partly drawn) [Compound 0091] |

| IC50 [1, 3] | IC50 [2, 4] | IC50 ([1]; read-out: PI3Kα, IC50) | IC50 ([2]; read-out: ERK2, IC50) | SMILES |
| --- | --- | --- | --- | --- |
| 1000 to 10000 nM | 100 to 1000 nM | – | – | CCOC(=O)CNC(=O)Nc1ccc2ncc(-c3cn[nH]c3)cc2n1 [Compound 0062] |
| < 100 nM | < 100 nM | – | – | CC(CCc1ccccc1)NC(=O)Nc1ccc2ncc(-c3cnn(CCCN4CCOCC4)c3)cc2n1 (stereo not drawn) [Compound 0179] |
| < 100 nM | < 100 nM | – | – | CCCC(C)(C)NC(=O)Nc1ccc2ncc(-c3cn[nH]c3)cc2n1 [Compound 0184] |
| < 100 nM | 100 to 1000 nM | – | – | O=C(Nc1ccc2ncc(-c3cnn(C4CCNCC4)c3)cc2n1)NC1CCCC1 [Compound 0214] |
| 100 to 1000 nM | 100 to 1000 nM | – | – | O=C(Nc1ccc2ncc(-c3ccc4c(c3)OCO4)cc2n1)NC1CCCC1 [Compound 0120] |
| < 100 nM | > 10000 nM | – | – | COc1cccc(Nc2cnc3ccc(NC(=O)NC4CCCC4)nc3c2)c1 [Compound 0029] |
| < 100 nM | < 100 nM | – | – | COCCN(CCOC)CCn1cc(-c2cnc3ccc(NC(=O)NC4CCCC4)nc3c2)cn1 [Compound 0048] |
| 100 to 1000 nM | < 100 nM | – | – | COCCCNC(=O)Nc1ccc2ncc(-c3cn[nH]c3)cc2n1 [Compound 0100] |
| < 100 nM | < 100 nM | 60 nM | < 3 nM | C[C@@H](NC(=O)Nc1ccc2ncc(-c3cn[nH]c3)cc2n1)C1CCCCC1 [Compound 0080] |
| < 100 nM | 100 to 1000 nM | – | – | CN(C)CCn1cc(-c2cnc3ccc(NC(=O)NC4CCCC4)nc3c2)cn1 [Compound 0018] |
| > 10000 nM | 1000 to 10000 nM | – | – | CCN(CC)CCNC(=O)Nc1ccc2ncc(-c3cn[nH]c3)cc2n1 [Compound 0109] |
| < 100 nM | < 100 nM | – | – | COc1cc(-c2cnc3ccc(NC(=O)NC4CCCC4)nc3c2)cnc1O [Compound 0015] |
| 100 to 1000 nM | 100 to 1000 nM | – | – | C[C@H](C[C@H](C)NC(=O)Nc1ccc2ncc(-c3cn[nH]c3)cc2n1)Oc1ccccc1 [Compound 0162] |
| < 100 nM | < 100 nM | – | – | O=C(Nc1ccc2ncc(N3CC(O)C3)cc2n1)NC1CCCC1 [Compound 0038] |
| < 100 nM | < 100 nM | – | – | CCCCCCNC(=O)Nc1ccc2ncc(-c3cn[nH]c3)cc2n1 [Compound 0057] |
| < 100 nM | 100 to 1000 nM | – | – | O=C(Nc1ccc2ncc(Nc3cnccn3)cc2n1)NC1CCCC1 [Compound 0140] |
| 100 to 1000 nM | < 100 nM | – | – | CO[C@H]1CCC[C@@H]1NC(=O)Nc1ccc2ncc(-c3cn[nH]c3)cc2n1 [Compound 0194] |
| < 100 nM | < 100 nM | – | – | O=C(Nc1ccc2ncc(N3CCS(=O)(=O)CC3)cc2n1)NC1CCCC1 [Compound 0133] |
| < 100 nM | < 100 nM | – | – | C[C@H](CN(C)C)Cn1cc(-c2cnc3ccc(NC(=O)NC4CCCC4)nc3c2)cn1 [Compound 0244] |
| 100 to 1000 nM | < 100 nM | – | – | CCCNC(=O)Nc1ccc2ncc(-c3cn[nH]c3)cc2n1 [Compound 0055] |
| < 100 nM | < 100 nM | – | – | C=Cn1cc(-c2cnc3ccc(NC(=O)NC4CCCC4)nc3c2)cn1 [Compound 0019] |
| < 100 nM | 100 to 1000 nM | < 3 nM | 324 nM | O=C(Nc1ccc2ncc(Nc3cn[nH]c3)cc2n1)NC1CCCC1 [Compound 0125] |

| IC50 [1, 3] | IC50 [2, 4] | IC50 ([1]; read-out: PI3Kα, IC50) | IC50 ([2]; read-out: ERK2, IC50) | SMILES |
| --- | --- | --- | --- | --- |
| 100 to 1000 nM | < 100 nM | – | – | O=C(NCCCOc1ccccc1)Nc1ccc2ncc(-c3cn[nH]c3)cc2n1 [Compound 0104] |
| < 100 nM | 100 to 1000 nM | – | – | O=C(Nc1ccc2ncc(-c3cn[nH]c3)cc2n1)N[C@H]1CCC[C@@H]1OCc1ccccc1 [Compound 0159] |
| 1000 to 10000 nM | 100 to 1000 nM | – | – | CN(C)CCCNC(=O)Nc1ccc2ncc(-c3cn[nH]c3)cc2n1 [Compound 0106] |
| < 100 nM | < 100 nM | – | – | O=C(Nc1ccc2ncc(-c3cn[nH]c3)cc2n1)NC1Cc2ccccc2C1 [Compound 0086] |
| 100 to 1000 nM | 100 to 1000 nM | – | – | COCC1(NC(=O)Nc2ccc3ncc(-c4cn[nH]c4)cc3n2)CCC1 [Compound 0196] |
| 100 to 1000 nM | 1000 to 10000 nM | – | – | CC(C)(C)OC(=O)C1CCN(c2cnc3ccc(NC(=O)NC4CCCC4)nc3c2)CC1 [Compound 0149] |
| < 100 nM | < 100 nM | – | – | CN(C)CCn1cc(-c2cnc3ccc(NC(=S)NC4CCCC4)nc3c2)cn1 [Compound 0209] |
| < 100 nM | < 100 nM | – | – | CN1CCN(CCCn2cc(-c3cnc4ccc(NC(=O)NC5CCCC5)nc4c3)cn2)CC1 [Compound 0232] |
| 100 to 1000 nM | < 100 nM | – | – | O=C(NCCc1ccccc1)Nc1ccc2ncc(-c3cn[nH]c3)cc2n1 [Compound 0089] |
| 100 to 1000 nM | < 100 nM | – | – | COCCOc1cc(-c2cnc3ccc(NC(=O)NC4CCCC4)nc3c2)ccc1O [Compound 0021] |
| < 100 nM | 1000 to 10000 nM | – | – | O=C(Nc1ccc2ncc(NC(=O)c3ccccc3)cc2n1)NC1CCCC1 [Compound 0134] |
| 1000 to 10000 nM | 100 to 1000 nM | – | – | O=C(NCCO)Nc1ccc2ncc(-c3cn[nH]c3)cc2n1 [Compound 0097] |
| < 100 nM | < 100 nM | – | – | O=C(Nc1ccc2ncc(-c3ccc(O)cc3)cc2n1)NC1CCCC1 [Compound 0034] |
| 100 to 1000 nM | < 100 nM | – | – | O=C(NCC1CCCOC1)Nc1ccc2ncc(-c3cn[nH]c3)cc2n1 (stereo not drawn) [Compound 0190] |
| < 100 nM | < 100 nM | – | – | COc1c(-c2cnn(C)c2)cnc2ccc(NC(=O)NC3CCCC3)nc12 [Compound 0235] |
| 1000 to 10000 nM | 100 to 1000 nM | – | – | O=C(Nc1ccc2ncc(-c3ccccc3CO)cc2n1)NC1CCCC1 [Compound 0040] |
| < 100 nM | < 100 nM | – | – | O=C(Nc1ccc2ncc(-c3cnco3)cc2n1)NC1CCCC1 [Compound 0239] |
| 100 to 1000 nM | < 100 nM | – | – | C[C@@H](NC(=O)Nc1ccc2ncc(-c3cn[nH]c3)cc2n1)C1CCCC1 [Compound 0198] |
| < 100 nM | < 100 nM | – | – | O=C(NCCCCC1OCCO1)Nc1ccc2ncc(-c3cn[nH]c3)cc2n1 [Compound 0174] |
| < 100 nM | > 10000 nM | – | – | COc1ccc(C(=O)Nc2cnc3ccc(NC(=O)NC4CCCC4)nc3c2)cc1 [Compound 0135] |
